This series deals with rodent lifetime carcinogenesis bioassay, tumor incidence TD50. The series is described as follows: chronic cancer bioassays in animals – CPDB, compiled studies (AID 1745844).

Values joined by “and” are separate entries in the source; they are usually repeats but may differ in a detail not shown here. Equal values may be shown once. Active and inactive are the calls of the source. How the calls were made is not given here.

On to `Cc1c([N+](=O)[O-])c(C)c([N+](=O)[O-])c(C(C)(C)C)c1[N+](=O)[O-]`, for which the TD50 runs as follows: (mouse, strain B6C3F1, females, in feed, site: Harderian gland, lesion: several types, types named in the paper, dosed 80 weeks, study length 90 weeks) 2250 mg/kg/day; (mouse, strain B6C3F1, females, in feed, site: all sites, lesion: lymphoma, dosed 80 weeks, study length 90 weeks) 1300 mg/kg/day; (mouse, strain B6C3F1, females, in feed, site: any site (literature study), lesion: malignant tumor, dosed 80 weeks, study length 90 weeks) 418 mg/kg/day; (mouse, strain B6C3F1, females, in feed, site: liver, lesion: hepatocellular adenoma, dosed 80 weeks, study length 90 weeks) 234 mg/kg/day; (mouse, strain B6C3F1, females, in feed, site: liver, lesion: hepatocellular carcinoma, dosed 80 weeks, study length 90 weeks) 2190 mg/kg/day; (mouse, strain B6C3F1, females, in feed, site: liver, lesion: several types, types named in the paper, dosed 80 weeks, study length 90 weeks) 203 mg/kg/day. In addition, the TD50 reads like this: (mouse, strain B6C3F1, females, in feed, site: lung, lesion: adenoma, dosed 80 weeks, study length 90 weeks) 1630 mg/kg/day; (mouse, strain B6C3F1, females, in feed, site: lung, lesion: carcinoma, dosed 80 weeks, study length 90 weeks) 6650 mg/kg/day; (mouse, strain B6C3F1, females, in feed, site: lung, lesion: several types, types named in the paper, dosed 80 weeks, study length 90 weeks) 1300 mg/kg/day; (mouse, strain B6C3F1, females, in feed, site: uterus, lesion: endometrial stromal sarcoma, dosed 80 weeks, study length 90 weeks) 533 mg/kg/day; (mouse, strain B6C3F1, males, in feed, site: Harderian gland, lesion: adenoma, dosed 80 weeks, study length 90 weeks) 383 mg/kg/day; (mouse, strain B6C3F1, males, in feed, site: Harderian gland, lesion: several types, types named in the paper, dosed 80 weeks, study length 90 weeks) 425 mg/kg/day. Also, the TD50 by setting is: (mouse, strain B6C3F1, males, in feed, site: any site (literature study), lesion: malignant tumor, dosed 80 weeks, study length 90 weeks) 334 mg/kg/day; (mouse, strain B6C3F1, males, in feed, site: liver, lesion: hepatocellular adenoma, dosed 80 weeks, study length 90 weeks) 232 mg/kg/day; (mouse, strain B6C3F1, males, in feed, site: liver, lesion: hepatocellular carcinoma, dosed 80 weeks, study length 90 weeks) 313 mg/kg/day; (mouse, strain B6C3F1, males, in feed, site: liver, lesion: several types, types named in the paper, dosed 80 weeks, study length 90 weeks) 92.1 mg/kg/day; (mouse, strain B6C3F1, males, in feed, site: lung, lesion: adenoma, dosed 80 weeks, study length 90 weeks) 1200 mg/kg/day.
With `Cc1c2ccccc2c(C)c2c1ccc1ccccc12`, the TD50 runs as follows: (mouse, strain albino, females, in feed, site: forestomach, lesion: papilloma, dosed 60 weeks, study length 60 weeks) 0.287 mg/kg/day; (mouse, strain albino, females, in feed, site: mesenteric intestine, lesion: angio-endothelioma, malignant, dosed 60 weeks, study length 60 weeks) 0.084 mg/kg/day.
As to `CC1CN1P(=O)(N1CC1C)N1CC1C` (stereo not drawn), the TD50 (rat, strain Sherman, males, by gavage, site: all sites, lesion: lymphatic leukemia, dosed 60 weeks, study length 60 weeks) was 4.46 mg/kg/day.
As to `CC1SC(C)N(N=O)C(C)S1` (stereo not drawn), the TD50 by setting is: (rat, strain Fischer 344, females, by gavage, site: esophagus, lesion: squamous-cell carcinoma, dosed 43 weeks, study length 90 weeks) 1.63 mg/kg/day; (rat, strain Fischer 344, females, by gavage, site: esophagus, lesion: squamous-cell tumor, dosed 43 weeks, study length 90 weeks) 0.483 mg/kg/day; (rat, strain Fischer 344, females, by gavage, site: liver, lesion: cholangioma, dosed 43 weeks, study length 90 weeks) 3.58 mg/kg/day; (rat, strain Fischer 344, females, by gavage, site: liver, lesion: hepatocellular adenoma, dosed 43 weeks, study length 90 weeks) 2.61 mg/kg/day; (rat, strain Fischer 344, females, by gavage, site: tongue, lesion: squamous-cell tumor, dosed 43 weeks, study length 90 weeks) 1.53 mg/kg/day.
For `CC(C)CN(N=O)C(N)=O`, the TD50 reads like this: (rat, strain Donryu, females, in drinking water, site: any site (literature study), lesion: several types, types named in the paper, dosed 76 weeks, study length 76 weeks) 4.7 mg/kg/day; (rat, strain Donryu, females, in drinking water, site: digestive tract, lesion: several types, types named in the paper, dosed 76 weeks, study length 76 weeks) 4.73 mg/kg/day; (rat, strain Donryu, females, in drinking water, site: duodenum, lesion: several types, types named in the paper, dosed 76 weeks, study length 76 weeks) 7.22 mg/kg/day; (rat, strain Donryu, females, in drinking water, site: liver, lesion: several types, types named in the paper, dosed 76 weeks, study length 76 weeks) 1220 mg/kg/day; (rat, strain Donryu, females, in drinking water, site: stomach, glandular, lesion: several types, types named in the paper, dosed 76 weeks, study length 76 weeks) 23.1 mg/kg/day.
On to `O=C(O[C@@H]1Cc2c(O)cc(O)cc2O[C@@H]1c1cc(O)c(O)c(O)c1)c1cc(O)c(O)c(O)c1`, for which the carcinogen call (mouse, strain C3H/HeN, males, in drinking water, site: liver, lesion: several types, types named in the paper, dosed 58 weeks, study length 58 weeks) is “negative (inactive)”.
On to `Cc1[nH]cnc1CSCCN=C(NC#N)N(C)N=O`, for which the carcinogen call (mouse, strain C57BL/6, females, in drinking water, site: liver, lesion: several types, types named in the paper, dosed 102 weeks, study length 104 weeks) is “negative (inactive)”; the carcinogen call (mouse, strain C57BL/6, females, in drinking water, site: lung, lesion: one or several types, types not named, dosed 102 weeks, study length 104 weeks) was “negative (inactive)”; the carcinogen call (rat, strain Fischer 344, males, in drinking water, site: liver, lesion: neoplastic nodule, dosed 106 weeks, study length 131 weeks) was “negative (inactive)”; the carcinogen call (rat, strain Sprague-Dawley, females, by gavage, site: any site (literature study), lesion: malignant tumor, dosed 52 weeks, study length 104 weeks) was “negative (inactive)”; the carcinogen call (rat, strain Sprague-Dawley, females, by gavage, site: any site (literature study), lesion: several types, types named in the paper, dosed 52 weeks, study length 104 weeks) was “negative (inactive)”; the carcinogen call (rat, strain Sprague-Dawley, males, by gavage, site: any site (literature study), lesion: several types, types named in the paper, dosed 52 weeks, study length 104 weeks) was “negative (inactive)”. Also, the TD50 is 43.3 mg/kg/day (inactive) (rat, strain Fischer 344, females, in drinking water, site: liver, lesion: neoplastic nodule, dosed 106 weeks, study length 131 weeks); 3.6 mg/kg/day (inactive) (rat, strain Fischer 344, females, in drinking water, site: pituitary gland, lesion: one or several types, types not named, dosed 106 weeks, study length 131 weeks); 18.8 mg/kg/day (inactive) (rat, strain Fischer 344, females, in drinking water, site: thyroid gland, lesion: one or several types, types not named, dosed 106 weeks, study length 131 weeks); 4820 mg/kg/day (inactive) (rat, strain Sprague-Dawley, males, by gavage, site: any site (literature study), lesion: malignant tumor, dosed 52 weeks, study length 104 weeks).
In the case of `Nc1ccccc1N`, the TD50 was 676 mg/kg/day (mouse, strain CD-1 HaM/ICR, females, in feed, site: any site (literature study), lesion: several types, types named in the paper, dosed 77 weeks, study length 90 weeks); 611 mg/kg/day (mouse, strain CD-1 HaM/ICR, females, in feed, site: liver, lesion: hepatoma, dosed 77 weeks, study length 90 weeks); 507 mg/kg/day (mouse, strain CD-1 HaM/ICR, females, in feed, site: liver, lesion: several types, types named in the paper, dosed 77 weeks, study length 90 weeks); 2260 mg/kg/day (inactive) (mouse, strain CD-1 HaM/ICR, females, in feed, site: lung, lesion: several types, types named in the paper, dosed 77 weeks, study length 90 weeks); 1970 mg/kg/day (mouse, strain CD-1 HaM/ICR, males, in feed, site: any site (literature study), lesion: several types, types named in the paper, dosed 77 weeks, study length 86 weeks); 921 mg/kg/day and 1110 mg/kg/day (mouse, strain CD-1 HaM/ICR, males, in feed, site: liver, lesion: hepatoma, dosed 77 weeks, study length 86 weeks). Also, the TD50 runs as follows: (mouse, strain CD-1 HaM/ICR, males, in feed, site: liver, lesion: several types, types named in the paper, dosed 77 weeks, study length 86 weeks) 921 mg/kg/day; (mouse, strain CD-1 HaM/ICR, males, in feed, site: lung, lesion: several types, types named in the paper, dosed 77 weeks, study length 86 weeks) 3210 mg/kg/day (inactive); (rat, strain Charles River CD (Sprague-Dawley), males, in feed, site: liver, lesion: hepatoma, dosed 77 weeks, study length 107 weeks) 248 mg/kg/day and 315 mg/kg/day; (rat, strain Charles River CD (Sprague-Dawley), males, in feed, site: liver, lesion: several types, types named in the paper, dosed 77 weeks, study length 107 weeks) 248 mg/kg/day.
With `CCCCCN(N=O)C(=O)OCC`, the TD50 by setting is: (rat, strain Donryu, females, in drinking water, site: any site (literature study), lesion: several types, types named in the paper, dosed 52 weeks, study length 60 weeks) 0.336 mg/kg/day; (rat, strain Donryu, females, in drinking water, site: esophagus, lesion: papilloma, dosed 52 weeks, study length 60 weeks) 1.46 mg/kg/day; (rat, strain Donryu, females, in drinking water, site: esophagus, lesion: squamous-cell carcinoma, dosed 52 weeks, study length 60 weeks) 1.01 mg/kg/day; (rat, strain Donryu, females, in drinking water, site: forestomach, lesion: papilloma, dosed 52 weeks, study length 60 weeks) 1.54 mg/kg/day; (rat, strain Donryu, females, in drinking water, site: forestomach, lesion: squamous-cell carcinoma, dosed 52 weeks, study length 60 weeks) 2.81 mg/kg/day; (rat, strain Donryu, females, in drinking water, site: several sites, sites named in the paper, lesion: papilloma, dosed 52 weeks, study length 60 weeks) 1.7 mg/kg/day. For the same molecule, for the setting “rat, strain Donryu, females, in drinking water, site: several sites, sites named in the paper, lesion: squamous-cell carcinoma, dosed 52 weeks, study length 60 weeks”, the TD50 is 1.09 mg/kg/day.

The record behind these values is PubChem BioAssay AID1745844 (Carcinogenic Potency Database (CPDB), 2022).
